Laboratory results: ChEMBL document CHEMBL1201862, “PubChem BioAssay data set” (2004)
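Cells were grown in 96-well plates and exposed to each compound for 48 hours at five concentrations; endpoints were interpolated linearly between bracketing concentrations, or set to the highest concentration if not reached. GI50 is the concentration that inhibits growth by half.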 The source made the active and inactive calls. Cut-off read from the data, not from the text of the source: active = GI50 up to about 1.1 µM and inactive = higher.

Experiments:
Assay in all cases: NCI-60 cell line screen, 48 h
786-0 = system: 786-0
A498 = system: A498
A549 = system: A549
ACHN = system: ACHN
BT-549 = system: BT-549
CAKI-1 = system: CAKI-1
CCRF-CEM = system: CCRF-CEM
COLO 205 = system: COLO 205
DU-145 = system: DU-145
EKVX = system: EKVX
HCC 2998 = system: HCC 2998
HCT-116 = system: HCT-116
HCT-15 = system: HCT-15
HL-60 = system: HL-60
HOP-62 = system: HOP-62
HOP-92 = system: HOP-92
HT-29 = system: HT-29
Hs-578T = system: Hs-578T
IGROV-1 = system: IGROV-1
K562 = system: K562
KM12 = system: KM12
LOX IMVI = system: LOX IMVI
M14 = system: M14
MCF7 = system: MCF7
MDA-MB-231 = system: MDA-MB-231
MDA-MB-435 = system: MDA-MB-435
MDA-N = system: MDA-N
MOLT-4 = system: MOLT-4
Malme-3M = system: Malme-3M
NCI-H226 = system: NCI-H226
NCI-H23 = system: NCI-H23
NCI-H460 = system: NCI-H460
NCI-H522 = system: NCI-H522
NCI/ADR-RES = system: NCI/ADR-RES
OVCAR-3 = system: OVCAR-3
OVCAR-4 = system: OVCAR-4
OVCAR-5 = system: OVCAR-5
OVCAR-8 = system: OVCAR-8
PC-3 = system: PC-3
SF-268 = system: SF-268
SF-295 = system: SF-295
SF-539 = system: SF-539
SK-MEL-28 = system: SK-MEL-28
SK-MEL-2 = system: SK-MEL-2
SK-MEL-5 = system: SK-MEL-5
SK-OV-3 = system: SK-OV-3
SN12C = system: SN12C
SNB-19 = system: SNB-19
SNB-75 = system: SNB-75
SW-620 = system: SW-620
T47D = system: T47D
TK-10 = system: TK-10
U-251 = system: U-251
UACC-257 = system: UACC-257
UACC-62 = system: UACC-62
UO-31 = system: UO-31
RPMI-8226 = system: RPMI-8226
RXF 393 = system: RXF 393

Question: Which results are given for CN(C)C(=S)C(Cl)(c1ccccc1)c1ccccc1?
Answer: GI50 (786-0): 44.4 µM (inactive); GI50 (A498): > 100 µM (inactive); GI50 (A549): 59.8 µM (inactive); GI50 (ACHN): 90.2 µM (inactive); GI50 (BT-549): > 100 µM (inactive); GI50 (CAKI-1): > 100 µM (inactive); GI50 (CCRF-CEM): 27.1 µM (inactive); GI50 (COLO 205): 85.7 µM (inactive); GI50 (DU-145): 40.6 µM (inactive); GI50 (EKVX): 27.8 µM (inactive); GI50 (HCC 2998): > 100 µM (inactive); GI50 (HCT-116): 38.4 µM (inactive); GI50 (HCT-15): 63 µM; GI50 (HL-60): 22.9 µM (inactive); GI50 (HOP-62): > 100 µM (inactive); GI50 (HOP-92): > 100 µM (inactive); GI50 (HT-29): 22.6 µM (inactive); GI50 (Hs-578T): > 100 µM (inactive); GI50 (IGROV-1): > 100 µM (inactive); GI50 (K562): 36.2 µM (inactive); GI50 (KM12): 46.3 µM (inactive); GI50 (LOX IMVI): 34.5 µM (inactive); GI50 (M14): > 100 µM (inactive); GI50 (MCF7): 28.6 µM (inactive); GI50 (MDA-MB-231): 59.7 µM (inactive); GI50 (MDA-MB-435): 37.1 µM (inactive); GI50 (MDA-N): 47.6 µM (inactive); GI50 (MOLT-4): 11.8 µM (inactive); GI50 (Malme-3M): > 100 µM (inactive); GI50 (NCI-H226): 53.7 µM (inactive); GI50 (NCI-H23): 53.3 µM (inactive); GI50 (NCI-H460): > 100 µM (inactive); GI50 (NCI-H522): 33.3 µM (inactive); GI50 (NCI/ADR-RES): 89.5 µM (inactive); GI50 (OVCAR-3): 82 µM (inactive); GI50 (OVCAR-4): 35.4 µM (inactive); GI50 (OVCAR-5): > 100 µM (inactive); GI50 (OVCAR-8): 73.8 µM (inactive); GI50 (PC-3): 35.6 µM (inactive); GI50 (SF-268): > 100 µM (inactive); GI50 (SF-295): > 100 µM (inactive); GI50 (SF-539): 36.6 µM (inactive); GI50 (SK-MEL-28): > 100 µM (inactive); GI50 (SK-MEL-2): 27.4 µM (inactive); GI50 (SK-MEL-5): 36.4 µM (inactive); GI50 (SK-OV-3): > 100 µM (inactive); GI50 (SN12C): 43.7 µM (inactive); GI50 (SNB-19): > 100 µM (inactive); GI50 (SNB-75): 15.8 µM (inactive); GI50 (SW-620): 34 µM (inactive); GI50 (T47D): 22.4 µM (inactive); GI50 (TK-10): > 100 µM (inactive); GI50 (U-251): 36.1 µM (inactive); GI50 (UACC-257): > 100 µM (inactive); GI50 (UACC-62): > 100 µM (inactive); GI50 (UO-31): 84.9 µM (inactive)

Question: What does the source list for CCc1cc(=O)n(/C(C)=C/c2ccccc2)n1C?
Answer: GI50 (A549): > 100 µM (inactive); GI50 (ACHN): > 100 µM (inactive); GI50 (BT-549): > 100 µM (inactive); GI50 (CAKI-1): > 100 µM (inactive); GI50 (CCRF-CEM): > 100 µM (inactive); GI50 (COLO 205): > 100 µM (inactive); GI50 (DU-145): > 100 µM (inactive); GI50 (EKVX): > 100 µM (inactive); GI50 (HCC 2998): > 100 µM (inactive); GI50 (HCT-116): > 100 µM (inactive); GI50 (HOP-62): > 100 µM (inactive); GI50 (HOP-92): > 100 µM (inactive); GI50 (HT-29): > 100 µM (inactive); GI50 (Hs-578T): > 100 µM (inactive); GI50 (IGROV-1): > 100 µM (inactive); GI50 (K562): > 100 µM (inactive); GI50 (KM12): > 100 µM (inactive); GI50 (LOX IMVI): > 100 µM (inactive); GI50 (M14): > 100 µM (inactive); GI50 (MCF7): > 100 µM (inactive); GI50 (MDA-MB-231): > 100 µM (inactive); GI50 (MDA-MB-435): > 100 µM (inactive); GI50 (MDA-N): > 100 µM (inactive); GI50 (MOLT-4): > 100 µM (inactive); GI50 (NCI-H226): > 100 µM (inactive); GI50 (NCI-H23): > 100 µM (inactive); GI50 (NCI-H460): > 100 µM (inactive); GI50 (NCI/ADR-RES): > 100 µM (inactive); GI50 (OVCAR-3): > 100 µM (inactive); GI50 (OVCAR-4): > 100 µM (inactive); GI50 (OVCAR-5): > 100 µM (inactive); GI50 (OVCAR-8): > 100 µM (inactive); GI50 (PC-3): > 100 µM (inactive); GI50 (RPMI-8226): > 100 µM (inactive); GI50 (RXF 393): > 100 µM (inactive); GI50 (SF-268): > 100 µM (inactive); GI50 (SF-295): > 100 µM (inactive); GI50 (SF-539): > 100 µM (inactive); GI50 (SK-MEL-28): > 100 µM (inactive); GI50 (SK-MEL-2): > 100 µM (inactive); GI50 (SK-MEL-5): > 100 µM (inactive); GI50 (SK-OV-3): > 100 µM (inactive); GI50 (SN12C): > 100 µM (inactive); GI50 (SNB-19): > 100 µM (inactive); GI50 (SNB-75): > 100 µM (inactive); GI50 (SW-620): > 100 µM (inactive); GI50 (T47D): > 100 µM (inactive); GI50 (TK-10): > 100 µM (inactive); GI50 (U-251): > 100 µM (inactive); GI50 (UACC-257): > 100 µM (inactive); GI50 (UACC-62): > 100 µM (inactive); GI50 (UO-31): > 100 µM (inactive)
